Measurements reported in ChEMBL document CHEMBL1201861, “Genomics of Drug Sensitity in Cancer screening data, Wellcome Trust Sanger Institute”.

Tests used:
Type in all cases: functional, cell-based
COR-L279 = assay: SANGER: Inhibition of human COR-L279 cell growth in a cell viability assay.
MHH-CALL-2 = assay: cells; conditions: Homo sapiens;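 also: growth inhibition of the cell line, read out in a cell viability assay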
Description: SANGER: Inhibition of human MHH-CALL-2 cell growth in a cell viability assay.

THP-1 = assay: cells; conditions: Homo sapiens;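 also: growth inhibition of THP-1 cells, read out via a cell viability assay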
Description: SANGER: Inhibition of human THP-1 cell growth in a cell viability assay.

ARH-77 = assay: cells; conditions: Homo sapiens;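 also: growth inhibition of ARH-77 cells, read out by a cell viability assay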
Description: SANGER: Inhibition of human ARH-77 cell growth in a cell viability assay.

CA46 = assay: cells; conditions: Homo sapiens;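 also: growth inhibition of human CA46 cells, read out by a cell viability assay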
Description: SANGER: Inhibition of human CA46 cell growth in a cell viability assay.

SCLC-21H = assay: cells; conditions: Homo sapiens;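 also: growth inhibition of cultured human SCLC-21H cells, read out with a cell viability assay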
Description: SANGER: Inhibition of human SCLC-21H cell growth in a cell viability assay.

SU-DHL-1 = assay: SANGER: Inhibition of human SU-DHL-1 cell growth in a cell viability assay.
MONO-MAC-6 = assay: cells; conditions: Homo sapiens;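 also: cell viability assay measuring growth inhibition of human MONO-MAC-6 cells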
Description: SANGER: Inhibition of human MONO-MAC-6 cell growth in a cell viability assay.

TE-441-T = assay: cells; conditions: Homo sapiens
Description: SANGER: Inhibition of human TE-441-T cell growth in a cell viability assay.

JIYOYE = assay: cells; conditions: Homo sapiens
Description: SANGER: Inhibition of human JiyoyeP-2003 cell growth in a cell viability assay.

RL95-2 = assay: cells; conditions: Homo sapiens;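 also: RL95-2 growth inhibition determined through a cell viability readout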
Description: SANGER: Inhibition of human RL95-2 cell growth in a cell viability assay.

BC-3 = assay: cells; conditions: Homo sapiens;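 also: cell viability assay measuring growth inhibition of human BC-3 cells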
Description: SANGER: Inhibition of human BC-3 cell growth in a cell viability assay.

NCI-H1436 = assay: cells; conditions: Homo sapiens;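 also: growth suppression of human NCI-H1436 cells, determined with a cell viability readout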
Description: SANGER: Inhibition of human NCI-H1436 cell growth in a cell viability assay.

NCI-H322M = assay: cells; conditions: Homo sapiens;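 also: cell viability assay measuring inhibition of growth of human NCI-H322M cells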
Description: SANGER: Inhibition of human NCI-H322M cell growth in a cell viability assay.

CAL-148 = assay: cells; conditions: Homo sapiens
Description: SANGER: Inhibition of human CAL-148 cell growth in a cell viability assay.

NCI-H345 = assay: cells; conditions: Homo sapiens;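 also: growth inhibition of NCI-H345 cells measured with a cell viability assay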
Description: SANGER: Inhibition of human NCI-H345 cell growth in a cell viability assay.

U-698-M = assay: cells; conditions: Homo sapiens
Description: SANGER: Inhibition of human U-698-M cell growth in a cell viability assay.

SIG-M5 = assay: cells; conditions: Homo sapiens;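 also: cell viability assay read-out, measuring how strongly growth of cultured human SIG-M5 cells is inhibited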
Description: SANGER: Inhibition of human SIG-M5 cell growth in a cell viability assay.

CMK = assay: cells; conditions: Homo sapiens;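 also: growth inhibition of CMK cells, read out as cell viability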
Description: SANGER: Inhibition of human CMK cell growth in a cell viability assay.

UACC-812 = assay: cells; conditions: Homo sapiens
Description: SANGER: Inhibition of human UACC-812 cell growth in a cell viability assay.

NCI-H524 = assay: cells; conditions: Homo sapiens;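 also: growth inhibition of human NCI-H524 cells, read out through a cell viability assay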
Description: SANGER: Inhibition of human NCI-H524 cell growth in a cell viability assay.

EB2 = assay: cells; conditions: Homo sapiens;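 also: growth inhibition of EB2 cells, read out with a cell viability assay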
Description: SANGER: Inhibition of human EB2 cell growth in a cell viability assay.

IM-9 = assay: SANGER: Inhibition of human IM-9 cell growth in a cell viability assay.
LOUCY = assay: cells; conditions: Homo sapiens;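 also: growth inhibition of human LOUCY cells, read out with a cell viability assay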
Description: SANGER: Inhibition of human LOUCY cell growth in a cell viability assay.

IST-SL2 = assay: cells; conditions: Homo sapiens;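 also: growth inhibition of human IST-SL2 cells, read out by a cell viability assay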
Description: SANGER: Inhibition of human IST-SL2 cell growth in a cell viability assay.

DG-75 = assay: cells; conditions: Homo sapiens;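 also: growth inhibition of DG-75 cells, read out with a cell viability assay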
Description: SANGER: Inhibition of human DG-75 cell growth in a cell viability assay.

NCI-H64 = assay: cells; conditions: Homo sapiens;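 also: growth inhibition of NCI-H64 cells, read out with a cell viability assay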
Description: SANGER: Inhibition of human NCI-H64 cell growth in a cell viability assay.

LC4-1 = assay: cells; conditions: Homo sapiens;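 also: growth inhibition of LC4-1 cells, read out with a cell viability assay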
Description: SANGER: Inhibition of human LC4-1 cell growth in a cell viability assay.

TE-15 = assay: cells; conditions: Homo sapiens;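 also: cell viability readout of growth inhibition in TE-15 cells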
Description: SANGER: Inhibition of human TE-15 cell growth in a cell viability assay.

NCCIT = assay: SANGER: Inhibition of human NCCIT cell growth in a cell viability assay.
RL = assay: cells; conditions: Homo sapiens
Description: SANGER: Inhibition of human RL cell growth in a cell viability assay.

SNU-C1 = assay: cells; conditions: Homo sapiens;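 also: growth inhibition of SNU-C1 human cells, read out by a cell viability assay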
Description: SANGER: Inhibition of human SNU-C1 cell growth in a cell viability assay.

Kasumi 1 = assay: cells; conditions: Homo sapiens;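 also: growth inhibition of human Kasumi-1 cells, read out by a cell viability assay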
Description: SANGER: Inhibition of human KASUMI-1 cell growth in a cell viability assay.

SCC-3 = assay: cells; conditions: Homo sapiens;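 also: cell viability assay measuring inhibition of SCC-3 cell growth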
Description: SANGER: Inhibition of human SCC-3 cell growth in a cell viability assay.

TALL-1 = assay: cells; conditions: Homo sapiens;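 also: growth inhibition of cultured human TALL-1 cells, read out by a cell viability assay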
Description: SANGER: Inhibition of human TALL-1 cell growth in a cell viability assay.

CESS = assay: SANGER: Inhibition of human CESS cell growth in a cell viability assay.
SNU-16 = assay: cells; conditions: Homo sapiens;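 also: growth inhibition of human SNU-16 cells, determined with a cell viability readout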
Description: SANGER: Inhibition of human NCI-SNU-16 cell growth in a cell viability assay.

RPMI-6666 = assay: cells; conditions: Homo sapiens
Description: SANGER: Inhibition of human RPMI-6666 cell growth in a cell viability assay.

NCI-H2227 = assay: cells; conditions: Homo sapiens;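 also: growth inhibition of the human cell line, read out with a cell viability assay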
Description: SANGER: Inhibition of human NCI-H2227 cell growth in a cell viability assay.

MOLT-13 = assay: cells; conditions: Homo sapiens;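 also: IC50 for suppression of MOLT-13 cell growth, read out with a cell viability assay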
Description: SANGER: Inhibition of human MOLT-13 cell growth in a cell viability assay.

SMILES	IC50 (COR-L279) [nM]	IC50 (MHH-CALL-2) [nM]	IC50 (THP-1) [nM]	IC50 (ARH-77) [nM]	IC50 (CA46) [nM]	IC50 (SCLC-21H) [nM]	IC50 (SU-DHL-1) [nM]	IC50 (MONO-MAC-6) [nM]	IC50 (TE-441-T) [nM]	IC50 (JIYOYE) [nM]	IC50 (RL95-2) [nM]	IC50 (BC-3) [nM]	IC50 (NCI-H1436) [nM]	IC50 (NCI-H322M) [nM]	IC50 (CAL-148) [nM]	IC50 (NCI-H345) [nM]	IC50 (U-698-M) [nM]	IC50 (SIG-M5) [nM]	IC50 (CMK) [nM]	IC50 (NCI-H524) [nM]	also measured
C=C1C(=O)O[C@@H]2C3O[C@]3(C)CC/C=C(\C)CC[C@@H]12 (some centres undefined)	> 5000	> 5000	> 5000	> 5000	> 5000	> 5000	> 5000	> 5000	> 5000	> 5000	> 5000	> 5000	> 5000	> 5000	> 5000	> 5000	> 5000	> 5000	> 5000	> 5000	IC50 (UACC-812): > 5000 nM; IC50 (EB2): > 5000 nM; IC50 (IM-9): > 5000 nM; IC50 (LOUCY): > 5000 nM; IC50 (IST-SL2): > 5000 nM; IC50 (DG-75): > 5000 nM; IC50 (NCI-H64): > 5000 nM; IC50 (LC4-1): > 5000 nM; IC50 (TE-15): > 5000 nM; IC50 (NCCIT): > 5000 nM; IC50 (RL): > 5000 nM; IC50 (SNU-C1): > 5000 nM; IC50 (Kasumi 1): > 5000 nM; IC50 (SCC-3): 2800 nM; IC50 (TALL-1): > 5000 nM; IC50 (CESS): > 5000 nM; IC50 (SNU-16): > 5000 nM; IC50 (RPMI-6666): > 5000 nM; IC50 (NCI-H2227): > 5000 nM
CC1=C2C[C@H]3[C@@H](CC=C4C[C@@H](O)CC[C@@]43C)[C@@H]2CC[C@]12O[C@@H]1C[C@H](C)CN[C@H]1[C@H]2C [CYCLOPAMINE]	> 16000	> 16000	> 16000	> 16000	> 16000	> 16000	> 16000	> 16000	> 16000	> 16000	> 16000	> 16000	> 16000	> 16000	> 16000	> 16000	> 16000	> 16000	> 16000	> 16000	IC50 (UACC-812): > 16000 nM; IC50 (EB2): > 16000 nM; IC50 (IM-9): > 16000 nM; IC50 (LOUCY): > 16000 nM; IC50 (IST-SL2): > 16000 nM; IC50 (DG-75): > 16000 nM; IC50 (NCI-H64): > 16000 nM; IC50 (LC4-1): > 16000 nM; IC50 (TE-15): > 16000 nM; IC50 (NCCIT): > 16000 nM; IC50 (RL): > 16000 nM; IC50 (SNU-C1): > 16000 nM; IC50 (Kasumi 1): > 16000 nM; IC50 (SCC-3): > 16000 nM; IC50 (TALL-1): > 16000 nM; IC50 (CESS): > 16000 nM; IC50 (SNU-16): > 16000 nM; IC50 (RPMI-6666): > 16000 nM; IC50 (NCI-H2227): > 16000 nM
CS(=O)(=O)CCNCc1ccc(-c2ccc3ncnc(Nc4ccc(OCc5cccc(F)c5)c(Cl)c4)c3c2)o1 [LAPATINIB]	> 2000	> 2000	> 2000	> 2000	> 2000	> 2000	> 2000	> 2000	> 2000	> 2000	> 2000	> 2000	> 2000	> 2000	> 2000	> 2000	> 2000	> 2000	> 2000	> 2000	IC50 (UACC-812): > 2000 nM; IC50 (EB2): > 2000 nM; IC50 (IM-9): > 2000 nM; IC50 (LOUCY): > 2000 nM; IC50 (IST-SL2): > 2000 nM; IC50 (DG-75): > 2000 nM; IC50 (NCI-H64): > 2000 nM; IC50 (LC4-1): > 2000 nM; IC50 (TE-15): > 2000 nM; IC50 (NCCIT): > 2000 nM; IC50 (RL): > 2000 nM; IC50 (SNU-C1): > 2000 nM; IC50 (Kasumi 1): > 2000 nM; IC50 (SCC-3): > 2000 nM; IC50 (TALL-1): > 2000 nM; IC50 (CESS): > 2000 nM; IC50 (SNU-16): > 2000 nM; IC50 (RPMI-6666): > 2000 nM; IC50 (NCI-H2227): > 2000 nM
CN1CCN(CCOc2cc(OC3CCOCC3)c3c(Nc4c(Cl)ccc5c4OCO5)ncnc3c2)CC1 [SARACATINIB]	> 2000	> 2000	> 2000	> 2000	> 2000	> 2000	> 2000	> 2000	> 2000	> 2000	1670	> 2000	790	> 2000	> 2000	> 2000	> 2000	> 2000	> 2000	> 2000	IC50 (MOLT-13): > 2000 nM; IC50 (UACC-812): > 2000 nM; IC50 (EB2): > 2000 nM; IC50 (IM-9): > 2000 nM; IC50 (LOUCY): > 2000 nM; IC50 (IST-SL2): > 2000 nM; IC50 (DG-75): > 2000 nM; IC50 (NCI-H64): > 2000 nM; IC50 (LC4-1): > 2000 nM; IC50 (TE-15): 274 nM; IC50 (NCCIT): 732 nM; IC50 (RL): > 2000 nM; IC50 (SNU-C1): > 2000 nM; IC50 (Kasumi 1): > 2000 nM; IC50 (SCC-3): > 2000 nM; IC50 (TALL-1): > 2000 nM; IC50 (CESS): > 2000 nM; IC50 (SNU-16): > 2000 nM; IC50 (RPMI-6666): > 2000 nM
CCC(=O)N1CCN(c2ccc(-n3c(=O)ccc4cnc5ccc(-c6cnc7ccccc7c6)cc5c43)cc2C(F)(F)F)CC1 [TORIN1]	108	335	> 1200	72.8	509	> 1200	645	72.1	1040	108	3.2	82	> 1200	> 1200	118	> 1200	> 1200	89	15.4	587	IC50 (MOLT-13): 302 nM; IC50 (EB2): > 1200 nM; IC50 (IM-9): > 1200 nM; IC50 (LOUCY): 63.9 nM; IC50 (IST-SL2): 53.6 nM; IC50 (DG-75): 262 nM; IC50 (NCI-H64): 303 nM; IC50 (LC4-1): 87.4 nM; IC50 (TE-15): 44.3 nM; IC50 (NCCIT): 543 nM; IC50 (RL): > 1200 nM; IC50 (SNU-C1): 382 nM; IC50 (Kasumi 1): > 1200 nM; IC50 (SCC-3): 129 nM; IC50 (TALL-1): 229 nM; IC50 (CESS): 31 nM; IC50 (SNU-16): 302 nM; IC50 (RPMI-6666): 288 nM
